Patent US20230332232A1, “COMPOSITIONS AND METHODS FOR DIAGNOSING AND TREATING A DYSTONIA” (Duke University, priority 2020, published 2023)

System: DYT1 knockin (Tor1a^delGAG/+) murine embryonic fibroblasts (MEFs)
Assay: Untargeted LC/MS/MS proteomics of EVs from DYT1 MEFs exposed 24 hours to drug, compared with untreated DYT1 (Het) MEFs
Format: cell-based, mouse
Procedure: Methods for isolation and purification of exosomes and extracellular vesicles (EV) were extensively reviewed. Experiments were performed to arrive at a robust and reproducible protocol. The protocol used herein is that set forth in Théry et al, 2006, which is incorporated by reference for it teaching of this protocol. This protocol involves depleting serum-derived EVs from cell culture media by overnight ultracentrifugation and exchanging media for 1% FBS EV-depleted media. Media is then collected from cells following a 24-hour conditioning period and EVs are isolated by 18-hour ultracentrifugation at 100,000 g (FIG. 1A).
EVs were isolated from media of cultured murine embryonic fibroblasts (MEFs) prepared in-house according to protocols described by Xu 2005 from DYT1 knockin mice (Tor1a^delGAG/+) (Goodchild R E, et al. (2005) Neuron. 48:923-932) and littermate wild-type (WT) controls. The cultured MEFs from the DYT1 mice were exposed for 24 hours to Ritonavir (RTV) while the MEFs from WT mice were exposed to vehicle, ISRIB, or Salubrinal (SAL). The EVs isolated from these WT cells and DYT1 were characterized by untargeted proteomics and RNA-seq to identify differentially expressed proteins and RNAs as candidate biomarkers. Experimenter and Proteomics core staff were blinded to genotype of cell cultures throughout preparation and analysis phases.
Samples were first normalized to 20 μg and spiked with undigested casein at a total of 40 fmol/μg, 80 fmol/μg, or 160 fmol/μg, then reduced with 10 mM dithiolthreitol for 30 minute at 80° C. and alkylated with 20 mM iodoacetamide for 30 minutes at room temperature. Next, the samples were supplemented with a final concentration of 1.2% phosphoric acid and 741 μL of S-Trap (Protifi) binding buffer (90% MeOH/100 mM […]). Proteins were trapped on the S-Trap, digested using 20 ng/μL sequencing grade trypsin (Promega) for 1 hour at 47° C., and eluted using 50 mM TEAB, followed by 0.2% FA, and lastly using 50% CAN/0.2% FA. All samples were then lyophilized to dryness and resuspended in 40 μL 1% TFA/2% acetonitrile containing 12.5 fmol/μL yeast alcohol dehydrogenase (ADH_YEAST). A QC Pool was created from 3 uL of each sample. All QC Pools were run periodically throughout the acquisition period.
Quantitative LC/MS/MS was performed on 2 μL of each sample, using a nanoAcquity UPLC system (Waters Corp) coupled to a Thermo Orbitrap Fusion Lumos high resolution accurate mass tandem mass spectrometer (Thermo) via a nanoelectrospray ionization source. Briefly, the sample was first trapped on a Symmetry C18 20 mm×180 μm trapping column (5 μL/min at 99.9/0.1 v/v water/acetonitrile), after which the analytical separation was performed using a 1.8 μm Acquity HSS T3 C18 75 μm×250 mm column (Waters Corp.) with a 90 minute linear gradient of 5% to 30% acetonitrile with 0.1% formic acid at a flow rate of 400 nanoliters/minute (nL/min) with a column temperature of 55° C. Data collection on the Fusion Lumos mass spectrometer was performed in a data-dependent acquisition (DDA) mode of acquisition with a r=120,000 (@ m/z 200) full MS scan from m/z 375-1500 with a target AGC value of 2e5 ions. MS/MS scans were acquired at Rapid scan rate (Ion Trap) with an AGC target of 5e3 ions and a max injection time of 100 ms. The total cycle time for MS and MS/MS scans was 2 seconds. A 20 second dynamic exclusion was employed to increase depth of coverage. The total analysis cycle time for each sample injection was approximately 2 hours.

Measured: SAL Direction Opposite ISRIB?

O=C(/C=C/c1ccccc1)NC(NC(=S)Nc1cccc2cccnc12)C(Cl)(Cl)Cl (stereo not shown) [SAL, Salubrinal]
yes: DYT1 (Het) MEF EVs, protein: DNA replication licensing factor MCM6 | DYT1 (Het) MEF EVs, protein: DNA-directed RNA polymerases I and III subunit RPAC1 | DYT1 (Het) MEF EVs, protein: Protein arginine N-methyltransferase 3 | DYT1 (Het) MEF EVs, protein: Scavenger receptor class B member 1 | DYT1 (Het) MEF EVs, protein: Serine threonine-protein phosphatase 2A 55 kDa regulatory subunit B alpha isoform | DYT1 (Het) MEF EVs, protein: Small nuclear ribonucleoprotein-associated protein B | EV protein: 26S proteasome non-ATPase regulatory subunit 8 | EV protein: 60S [?] subunit biogenesis protein [?] homolog | EV protein: 60S ribosomal protein [?] | EV protein: 116 kDa [?] small nuclear ribonucleoprotein component | EV protein: AP-3 complex subunit [?] | EV protein: ATP-dependent RNA helicase [?] | EV protein: Acyl-protein thioesterase 2 | EV protein: Anaphase-promoting complex subunit 2 | EV protein: Anaphase-promoting complex subunit 5 | EV protein: Apolipoprotein M | EV protein: Calnexin | EV protein: Cell [?] cycle protein [?] homolog | EV protein: Coiled-coil domain-containing protein 22 | EV protein: Cullin-2 | EV protein: Cullin-5 | EV protein: Cullin-7 | EV protein: DNA [?] (r264) | EV protein: DNA ligase 1 | EV protein: DNA replication licensing factor [?] | EV protein: DNA-directed RNA polymerase II subunit RPB1 | EV protein: DNA-directed RNA polymerase II subunit RPB2 | EV protein: DNA-directed RNA polymerase II subunit RPB3 | EV protein: DNA-directed RNA polymerases I, II, and III subunit RPABC3 | EV protein: DNA-directed RNA polymerases I, II, and III subunit [?] | EV protein: Double-strand-break repair protein rad21 homolog | EV protein: Elongin-B | EV protein: Exosome complex exonuclease RRP44 | EV protein: Extended synaptotagmin-1 | EV protein: Gamma-tubulin complex component 2 | EV protein: General vesicular transport factor p115 | EV protein: Glycosylated lysosomal membrane protein | EV protein: Glycylpeptide N-tetradecanoyltransferase 1 | EV protein: Golgi reassembly-stacking protein 2 | EV protein: Histone-arginine methyltransterase CARM1 | EV protein: Importin-7 | EV protein: Leucyl-cystinyl aminopeptidase | EV protein: Mediator [?] RNA polymerase II transcription subunit 23 | EV protein: Metastasis-associated protein [?] (r222) | EV protein: Metastasis-associated protein [?] (r261) | EV protein: Microtubule-associated protein [?] | EV protein: Nuclear [?] complex protein [?] | EV protein: Nuclear cap-binding protein subunit 1 | EV protein: Nuclear receptor-binding protein | EV protein: Phosphoribosyl pyrophosphate synthase-associated protein 1 | EV protein: Pigment epithelium-derived factor | EV protein: Protein O-GlcNAcase | EV protein: Protein [?] 14 homolog | EV protein: Protein [?] (r160) | EV protein: Ran-binding protein 10 | EV protein: Ribosome biogenesis protein BOP1 | EV protein: Ribosome production factor 2 homolog | EV protein: Serine threonine-protein phosphatase 6 catalytic subinit | EV protein: Sorting nexin-1 | EV protein: Trascriptional activator protein [?] -alpha | EV protein: WD repeat-containing protein [?] | EV protein: [?] -1 (r154) | EV protein: [?] -1 (r232) | EV protein: [?] -conjucating enxyme [?] | EV protein: [?] kinase | EV protein: [?] myosin- [?] | EV protein: [?] repeat-containing protein 5A | EV protein: [?] small nuclear ribonucleoprotein 40 kDa protein | EV protein: p21-activated protein kinase-interacting protein 1 | EV protein: transportin-3
